Experimental findings from ChEMBL document CHEMBL1139301, “Multifidone: a novel cytotoxic lathyrane-type diterpene having an unusual six-membered A ring from Jatropha multifida” (Bioorg Med Chem Lett, 2009) are described below.

Holding throughout (format): functional, cell-based
The test system of one test is THP-1. Put plainly: Cytotoxicity against human THP1 cells by MTT assay.
A further test has as its system A-375. Put plainly: Cytotoxicity against human A375 cells by MTT assay.
The test system of the next test is HL-60. Put plainly: Cytotoxicity against human HL60 cells by MTT assay.
The test system of a further test is A549. Put plainly: Cytotoxicity against human A549 cells by MTT assay.

For `COc1cc([C@@H]2c3cc4c(cc3[C@@H](O[C@@H]3O[C@@H]5CO[C@@H](C)O[C@H]5[C@H](O)[C@H]3O)[C@H]3COC(=O)[C@H]23)OCO4)cc(OC)c1O` [ETOPOSIDE], the IC50 in the test on THP-1 came out at 2.16 µM; in the test with A-375, 3.92 µM; in the test on HL-60, 1.83 µM; in the test with A549, 9.51 µM.

For `CC1=CC(=O)[C@]23O[C@](C)(C=C2C1=O)CC[C@H]1[C@@H](C[C@H]3C)C1(C)C` [MULTIFIDONE], the IC50 with THP-1 was 45.6 µM; with A-375 it was 159 µM; in the test on HL-60, 121 µM; with A549, 127 µM.
